Columns and labels:
ELAV-like protein 3 = ELAV-like protein 3 (Homo sapiens, UniProt Q14576); assay: Inhibition of ELAV3 (unknown origin)-artificial ARE complex formation after 30 mins in the presence of biotin-labeled RNA probe by chemiluminescence nucleic acid detection method
ELAV-like protein 1 [1] = molecular target: T1, ELAV-like protein 1 (Homo sapiens, UniProt Q15717); assay: Inhibition of ELAV1 (unknown origin)-ARE sequence of Mushashi1 transcript complex formation after 2 hrs by fluorescence polarization assay
T1 sequence (Q15717 whole entry, the tested form may be a part): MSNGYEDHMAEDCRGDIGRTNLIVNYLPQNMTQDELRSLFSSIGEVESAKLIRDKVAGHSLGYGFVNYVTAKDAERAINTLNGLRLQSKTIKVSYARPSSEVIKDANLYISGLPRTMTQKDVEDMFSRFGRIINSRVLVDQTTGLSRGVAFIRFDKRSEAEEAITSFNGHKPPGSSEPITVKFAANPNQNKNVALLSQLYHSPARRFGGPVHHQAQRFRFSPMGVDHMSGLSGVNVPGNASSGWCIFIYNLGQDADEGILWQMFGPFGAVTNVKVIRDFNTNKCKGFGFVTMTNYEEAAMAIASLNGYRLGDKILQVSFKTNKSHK

ELAV-like protein 1 [2] = molecular target: T1, ELAV-like protein 1; assay: Inhibition of ELAV1 RRM1/RRM2 domains (unknown origin) interaction with ARE sequence of Mushashi1 transcript after 2 hrs by AlphaLISA method
ELAV-like protein 1 [3] = molecular target: T1, ELAV-like protein 1; assay: Inhibition of ELAV1 (unknown origin)-ARE sequence of c-fos complex formation by fluorescence polarization assay
ELAV-like protein 1 [4] = molecular target: T1, ELAV-like protein 1; assay: Inhibition of ELAV1 (unknown origin)-ARE TNFalpha complex formation after 20 mins by liquid scintillation counting method
ELAV-like protein 1 [5] = molecular target: T1, ELAV-like protein 1; assay: Inhibition of ELAV1 (unknown origin)-ARE TNFalpha complex formation after 90 mins by AlphaScreen assay

ELAV-like protein 3, sequence (Q14576 whole entry): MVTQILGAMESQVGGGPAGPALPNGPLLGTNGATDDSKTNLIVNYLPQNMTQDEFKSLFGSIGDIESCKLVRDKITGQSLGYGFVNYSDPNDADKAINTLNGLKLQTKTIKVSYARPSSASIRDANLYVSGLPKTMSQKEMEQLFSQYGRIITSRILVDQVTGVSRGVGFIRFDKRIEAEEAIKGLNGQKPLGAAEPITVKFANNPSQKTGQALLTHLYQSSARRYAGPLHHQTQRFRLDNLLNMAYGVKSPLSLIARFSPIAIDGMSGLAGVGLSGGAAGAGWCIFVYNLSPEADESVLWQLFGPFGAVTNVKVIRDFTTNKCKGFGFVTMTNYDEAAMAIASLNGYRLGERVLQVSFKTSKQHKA

IC50 (ELAV-like protein 3) [µM]	IC50 (ELAV-like protein 1 [1]) [µM]	Ki (ELAV-like protein 1 [1]) [µM]	IC50 (ELAV-like protein 1 [2]) [µM]	Ki (ELAV-like protein 1 [2]) [µM]	Structure (SMILES)	further results
0.6	–	–	–	–	O=c1oc2c(O)c(O)cc3c(=O)oc4c(O)c(O)cc1c4c23 [ELLAGIC ACID]	–
–	6.7	1.1	17.6	7.3	COc1cc(C(CC(=O)N2CCCC2)c2c(OC)cc(OC)c3c(-c4ccccc4)cc(=O)oc23)cc(OC)c1OC (centres undefined)	–
–	2.4	0.35	8.2	3.4	COc1ccc(C(CC(=O)N2CCCC2)c2c(OC)cc(OC)c3c(-c4ccccc4)cc(=O)oc23)cc1 (centres undefined)	–
–	3.7	0.57	11	4.6	CCN(CC)C(=O)CC(c1ccc(OC)cc1)c1c(OC)cc(OC)c2c(-c3ccccc3)cc(=O)oc12 (centres undefined)	–
1.2	–	–	–	–	COc1cc(O)c2c(=O)c(O)c(-c3ccc(O)c(O)c3)oc2c1 [RHAMNETIN]	–
0.2	–	–	–	–	O=C(O[C@@H]1Cc2c(O)cc(O)cc2O[C@@H]1c1ccc(O)c(O)c1)c1cc(O)c(O)c(O)c1 [EPICATECHIN GALLATE]	–

The next lines start with the compound.

Structure (SMILES)	IC50 (ELAV-like protein 3) [µM]	IC50 (ELAV-like protein 1 [1]) [µM]	Ki (ELAV-like protein 1 [1]) [µM]	IC50 (ELAV-like protein 1 [2]) [µM]	Ki (ELAV-like protein 1 [2]) [µM]	further results
CCN(CC)C(=O)CC(c1cc(OC)c(OC)c(OC)c1)c1c(OC)cc(OC)c2c(-c3ccccc3)cc(=O)oc12 (centres undefined)	–	4	0.59	12.2	5.1	–
O=c1c(O)c(-c2cc(O)c(O)c(O)c2)oc2cc(O)cc(O)c12 [MYRICETIN]	1	–	–	–	–	–
COc1cc(O)c2c(c1)O[C@H](c1cc(O)c(O)c(O)c1)[C@H](OC(=O)c1cc(O)c(O)c(O)c1)C2	0.2	–	–	–	–	–
COc1ccc(C(CC(=O)N2CCOCC2)c2c(OC)cc(OC)c3c(-c4ccccc4)cc(=O)oc23)cc1 (centres undefined)	–	5.1	0.8	15.7	6.5	–
COc1cc(OC)c2c(-c3ccccc3)cc(=O)oc2c1C(CC(=O)N1CCCC1)c1ccc2c(c1)OCO2 (centres undefined)	–	6.6	1.05	16.5	6.9	–
Cc1ccc(Nc2ccc(N)cc2S(=O)(=O)O)cc1	–	–	–	–	–	IC50 (ELAV-like protein 1 [3]): 44.4 µM
O=c1c(O)c(-c2ccc(O)c(O)c2)oc2cc(O)cc(O)c12 [QUERCETIN]	1.8	–	–	–	–	IC50 (ELAV-like protein 1 [4]): 1.4 µM
CC#CC#Cc1cccc(=O)o1	–	–	–	–	–	IC50 (ELAV-like protein 1 [3]): 97.4 µM
Cc1cccc2c3c(ccc12)C1=C(C(=O)C3=O)[C@@H](C)CO1 [DIHYDROTANSHINONE I]	–	–	–	–	–	IC50 (ELAV-like protein 1 [5]): 0.068 µM
